Data published in patent US12421193B2, “GPR52 modulators and methods of use” (Neurocrine Biosciences, Inc., priority 2020, dated 2025).
Where a name gives a salt, the structure may show the parent alone.

Target: T1, recombinant human GPR52 (Homo sapiens, UniProt Q9Y2T5)
T1 construct: expressed in transfected cells
Test: TR-FRET cAMP assay (LANCE Ultra cAMP Kit), GPR52 activity
Assay type: cell-based
Settings: Flp-In-CHO cells stably expressing recombinant human GPR52; cAMP production, normalized to the positive control
Procedure: TR-FRET cAMP assays were performed using commercially available assay kits (LANCE™ Ultra cAMP Kit). Controls and compounds were solubilized in DMSO using ½ log dilution to generate duplicate 10-point dose response curves in 384-well polypropylene compound plates. Sixty nanoliters of the diluted compounds were transferred into 384-well NBS assay plates and further diluted to 1× with the addition of 2000 cells per well. Flp-In™—CHO cells that stably express recombinant human GPR52.
Cells were harvested with cell stripper and resuspended in Stimulation Buffer (5 mM HEPES, 0.1% bovine serum albumin (BSA), 0.5 mM IBMX, pH 7.4). After thirty minutes incubation at room temperature, detection reagents were added to each well. Plates were then incubated for 30 minutes at room temperature. The LANCE™ Ultra cAMP assay uses time-resolved fluorescence resonance energy transfer (TR-FRET) to detect cAMVP production; this signal was quantified using a Pherastar multi-mode plate reader.
Dose-response curves were generated from the fluorescence counts normalized to the positive control. E EC50 values were obtained using a nonlinear regression curve-fitting program.

T1 sequence (Q9Y2T5 whole entry): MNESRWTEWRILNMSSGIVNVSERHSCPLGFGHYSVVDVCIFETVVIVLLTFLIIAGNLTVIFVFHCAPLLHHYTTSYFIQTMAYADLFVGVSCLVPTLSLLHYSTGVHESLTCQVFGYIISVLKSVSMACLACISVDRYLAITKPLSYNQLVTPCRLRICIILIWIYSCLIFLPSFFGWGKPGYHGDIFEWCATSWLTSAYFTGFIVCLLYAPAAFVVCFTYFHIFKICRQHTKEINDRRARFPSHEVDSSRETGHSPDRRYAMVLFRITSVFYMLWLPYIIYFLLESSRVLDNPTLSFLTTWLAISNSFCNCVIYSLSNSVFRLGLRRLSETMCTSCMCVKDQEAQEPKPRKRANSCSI

Row | EC50 [nM] | Compound
1 | 25 to 100 | COc1cc(OCc2ccnc(-c3ccc(C(N)=O)c(C)c3)c2)ccc1C(F)(F)F [Example 58, 4-{4-[3-methoxy-4-(trifluoromethyl)phenoxymethyl]pyridin-2-yl}-2-methylbenzamide]
2 | 25 to 100 | Cc1cc(-c2cc(COc3cc(F)cc(F)c3)ccn2)ccc1C(N)=O [Example 15, 4-[4-(3,5-difluorophenoxymethyl)pyridin-2-yl]-2-methylbenzamide]
3 | < 25 | Cc1cc(-c2cc(COc3ccc(C(F)(F)F)c(F)c3)ccn2)ccc1C(N)=O [Example 65, 4-{4-[3-fluoro-4-(trifluoromethyl)phenoxymethyl]pyridin-2-yl}-2-methylbenzamide]
4 | 101 to 1000 | Cc1cc(-c2cc(COc3ccc(F)cc3Cl)ccn2)ccc1C(N)=O [Example 45, 4-[4-(2-chloro-4-fluorophenoxymethyl)pyridin-2-yl]-2-methylbenzamide]
5 | 25 to 100 | CSc1ccccc1OCc1ccnc(-c2ccc(C(N)=O)c(C)c2)c1 [Example 53, 4-{4-[2-(methylsulfanyl)phenoxymethyl]pyridin-2-yl}-2-methyl benzamide]
6 | < 25 | CC(=O)c1ccc(OCc2ccnc(-c3ccc(C(N)=O)c(C)c3)c2)cc1C [Example 13, 4-[4-(4-acetyl-3-methylphenoxymethyl)pyridin-2-yl]-2-methylbenzamide]
7 | 101 to 1000 | COc1ccc(OCc2ccnc(-c3ccc(C(N)=O)c(C)c3)c2)cc1OC [Example 17, 4-[4-(3,4-dimethoxyphenoxymethyl)pyridin-2-yl]-2-methylbenzamide]
8 | 101 to 1000 | Cc1ccc(OCc2ccnc(-c3ccc(C(N)=O)c(C)c3)c2)cc1 [Example 36, 4-[4-(4-methylphenoxymethyl)pyridin-2-yl]-2-methylbenzamide]
9 | 101 to 1000 | Cc1ccc(OCc2ccnc(-c3ccc(C(N)=O)c(C)c3)c2)cc1F [Example 8, 4-[4-(3-fluoro-4-methylphenoxymethyl)pyridin-2-yl]-2-methylbenzamide]
10 | < 25 | Cc1cc(-c2cc(COc3cc(F)c(F)c(Cl)c3)ccn2)ccc1C(N)=O [Example 54, 4-[4-(3-chloro-4,5-difluorophenoxymethyl)pyridin-2-yl]-2-methylbenzamide]
11 | 101 to 1000 | CCc1ccccc1OCc1ccnc(-c2ccc(C(N)=O)c(C)c2)c1 [Example 32, 4-[4-(2-ethylphenoxymethyl)pyridin-2-yl]-2-methylbenzamide]
12 | 25 to 100 | Cc1cc(-c2cc(COc3ccc(C#N)c(F)c3)ccn2)ccc1C(N)=O [Example 4, 4-[4-(4-cyano-3-fluorophenoxymethyl)pyridin-2-yl]-2-methylbenzamide hydrochloride]
13 | 25 to 100 | Cc1cc(-c2cc(COc3ccc(F)cc3)ccn2)ccc1C(N)=O [Example 12, 4-[4-(4-fluorophenoxymethyl)pyridin-2-yl]-2-methylbenzamide]
14 | 25 to 100 | Cc1cc(-c2cc(COc3cccc(F)c3F)ccn2)ccc1C(N)=O [Example 52, 4-[4-(2,3-difluorophenoxymethyl)pyridin-2-yl]-2-methylbenzamide]
15 | < 25 | Cc1cc(-c2cc(COc3cccc(C(F)F)c3)ccn2)ccc1C(N)=O [Example 67, 4-{4-[3-(difluoromethyl)phenoxymethyl]pyridin-2-yl}-2-methylbenzamide]
16 | 101 to 1000 | Cc1ccc(F)c(OCc2ccnc(-c3ccc(C(N)=O)c(C)c3)c2)c1 [Example 14, 4-[4-(2-fluoro-5-methylphenoxymethyl)pyridin-2-yl]-2-methylbenzamide]
17 | 25 to 100 | COc1cc(Cl)ccc1OCc1ccnc(-c2ccc(C(N)=O)c(C)c2)c1 [Example 51, 4-[4-(4-chloro-2-methoxyphenoxymethyl)pyridin-2-yl]-2-methylbenzamide]
18 | 101 to 1000 | Cc1cc(-c2cc(COc3ccc4c(c3)OCC4)ccn2)ccc1C(N)=O [Example 63, 4-{4-[(2,3-dihydro-1-benzofuran-6-yloxy)methyl]pyridin-2-yl}-2-methylbenzamide]
19 | < 25 | Cc1cc(-c2cc(COc3ccc4c(c3)CCO4)ccn2)ccc1C(N)=O [Example 64, 4-{4-[(2,3-dihydro-1-benzofuran-5-yloxy)methyl]pyridin-2-yl}-2-methylbenzamide]
20 | < 25 | Cc1cc(-c2cc(COc3cc(F)c(F)c(F)c3)ccn2)ccc1C(N)=O [Example 57, 4-[4-(3,4,5-trifluorophenoxymethyl)pyridin-2-yl]-2-methyl benzamide]
21 | < 25 | Cc1cc(-c2cc(COc3ccc(F)c(Cl)c3)ccn2)ccc1C(N)=O [Example 47, 4-[4-(3-chloro-4-fluorophenoxymethyl)pyridin-2-yl]-2-methylbenzamide]

Continued, molecule first:

Row | Compound | EC50 [nM]
22 | Cc1cc(-c2cc(COc3cc(C(F)(F)F)nn3C)ccn2)ccc1C(N)=O [Example 66, 4-[4-({[1-methyl-3-(trifluoromethyl)-1H-pyrazol-5-yl]oxy}methyl)pyridin-2-yl]2-methylbenzamide] | 25 to 100
23 | Cc1cc(-c2cc(COc3cc(F)cc(C4CC4)c3)ccn2)ccc1C(N)=O [Example 70, 4-[4-(3-cyclopropyl-5-fluorophenoxymethyl)pyridin-2-yl]-2-methylbenzamide] | < 25
24 | COc1cncc(OCc2ccnc(-c3ccc(C(N)=O)c(C)c3)c2)c1 [Example 74, 4-(4-{[(5-methoxypyridin-3-yl)oxy]methyl}pyridin-2-yl)-2-methylbenzamide] | 101 to 1000
25 | Cc1cc(-c2cc(COc3ccc(C#N)cc3)ccn2)ccc1C(N)=O [Example 26, 4-[4-(4-cyanophenoxymethyl)pyridin-2-yl]-2-methylbenzamide] | 25 to 100
26 | Cc1ccc(OCc2cncc(-c3ccc(C(N)=O)c(C)c3)c2)cc1F [Example 89, 4-[5-(3-fluoro-4-methylphenoxymethyl)pyridin-3-yl]-2-methylbenzamide] | 25 to 100
27 | Cc1cc(-c2cncc(COc3ccc(C#N)c(F)c3)c2)ccc1C(N)=O [Example 91, 4-[5-(4-cyano-3-fluorophenoxymethyl)pyridin-3-yl]-2-methylbenzamide] | > 1000
28 | CCC(=O)c1ccc(OCc2ccnc(-c3ccc(C(N)=O)c(C)c3)c2)cc1 [Example 59, 4-[4-(4-propanoylphenoxymethyl)pyridin-2-yl]2-methylbenzamide] | 101 to 1000
29 | Cc1cc(-c2ccnc(COc3ccc(C#N)c(F)c3F)c2)ccc1C(N)=O [Example 84, 4-[2-(4-cyano-2,3-difluorophenoxymethyl)pyridin-4-yl]-2-methylbenzamide] | 101 to 1000
30 | Cc1cc(-c2ccnc(COc3ccc(C#N)c(F)c3)n2)ccc1C(N)=O [Example 103, 4-[2-(4-cyano-3-fluorophenoxymethyl)pyrimidin-4-yl]-2-methylbenzamide] | 101 to 1000
31 | Cc1cc(-c2cncc(COc3cc(F)c(F)c(F)c3)c2)ccc1C(N)=O [Example 100, 4-[5-(3,4,5-trifluorophenoxymethyl)pyridin-3-yl]2-methylbenzamide] | 101 to 1000
32 | Cc1cc(-c2ccnc(COc3ccc4c(cnn4C)c3)c2)ccc1C(N)=O [Example 87, 4-(2-{[(1-methyl-1H-indazol-5-yl)oxy]methyl}pyridin-4-yl)-2-methyl-benzamide] | 101 to 1000
33 | Cc1cc(-c2ccnc(COc3cc(F)c(F)c(F)c3)c2)ccc1C(N)=O [Example 83, 4-[2-(3,4,5-trifluorophenoxymethyl)pyridin-4-yl]-2-methylbenzamide] | 101 to 1000
34 | Cc1cc(-c2cc(COc3ccc(C#N)c(F)c3)ccn2)ccc1C(=O)NCCN(C)C [Example 80, 4-[4-(4-cyano-3-fluorophenoxymethyl)pyridin-2-yl]-N-[2-(dimethylamino)ethyl]-2-methylbenzamide] | < 25
35 | Cc1cc(-c2cncc(COc3cc(F)cc(C#N)c3)c2)ccc1C(N)=O [Example 92, 4-[5-(3-cyano-5-fluorophenoxymethyl)pyridin-3-yl]-2-methylbenzamide] | > 1000
36 | Cc1cc(-c2cc(COc3ccc([N+](=O)[O-])cc3)ccn2)ccc1C(N)=O [Example 33, 4-[4-(4-nitrophenoxymethyl)pyridin-2-yl]-2-methylbenzamide] | < 25
37 | COc1ccc(OCc2ccnc(-c3ccc(C(N)=O)c(C)c3)c2)c2ccccc12 [Example 19, 4-(4-{[(4-methoxynaphthalen-1-yl)oxy]methyl}pyridin-2-yl)-2-methylbenzamide] | 101 to 1000
38 | Cc1cc(-c2cc(COc3ccc(C(C)(C)O)cc3)ccn2)ccc1C(N)=O [Example 69, 4-{4-[4-(2-hydroxypropan-2-yl)phenoxymethyl]pyridin-2-yl}-2-methylbenzamide] | 25 to 100
39 | Cc1cc(-c2cncc(COc3ccc(F)cc3)c2)ccc1C(N)=O [Example 97, 4-[5-(4-fluorophenoxymethyl)pyridin-3-yl]-2-methylbenzamide] | > 1000
40 | Cc1cc(-c2cc(COc3cccc(CCO)c3)ccn2)ccc1C(N)=O [Example 16, 4-{4-[3-(2-hydroxyethyl)phenoxymethyl]pyridin-2-yl}-2-methylbenzamide] | 101 to 1000
41 | Cc1cc(-c2cc(COc3ccnc(C(F)(F)F)c3)ccn2)ccc1C(N)=O [Example 11, 4-[4-({[2-(trifluoromethyl)pyridin-4-yl]oxy}methyl)pyridin-2-yl]-2-methyl benzamide] | 101 to 1000
42 | Cc1cc(-c2cc(COc3ccc4ccccc4c3)ccn2)ccc1C(N)=O [Example 42, 4-{4-[(naphthalen-2-yloxy)methyl]pyridin-2-yl}-2-methylbenzamide] | 25 to 100
43 | Cc1cc(-c2cncc(COc3ccc(C(F)(F)F)cc3)c2)ccc1C(N)=O [Example 90, 4-{5-[4-(trifluoromethyl)phenoxymethyl]pyridin-3-yl}-2-methylbenzamide] | 25 to 100
